Entries after “also recorded” stand apart in the source; their conditions may differ. Peptide text beside a SMILES is read from it.
Columns and labels:
[1] = alanylglutamine compared to glutamine; cited from earlier work
[2] = test system: male runners; assay: Dynavision D2 MODE A reaction test (hits and time per hit in 60 s); format: in vivo, human; set-up: Mode A Avg Δ (average time per hit), group mean: unit not given here; conditions: for Mode A Avg Δ (average time per hit), group mean / Mode A Hits Δ, group mean: Post-Pre
Experimental: The testing protocol is depicted in FIG. 1. Data collection occurred on four separate occasions. Each session required participants to perform a 60-min run at 75% of their previously measured VO2max. Following this run, all participants performed a run at 90% of their VO2max until volitional exhaustion. All participants performed their first trial (DHY) without any rehydration. During this session the total weight lost during the trial was determined. The fluid loss that occurred during this session was then used to determine the participant's swear rate (L·hr^−1). To continue in the study, participant's sweat rate was or exceeded 1.3 L·hr^−1. During the next three trails participants were provided 250 ml of fluid every 15 minutes in equal amounts. During one of the trials participants consumed only a flavored sports drink (ELECT only), while during the other trials participants consumed the alanine-glutamine supplement (Sustamine™) mixed in the same flavored sports drink at either a low (LD: 300 mg per 500 ml) or high (HD: 1 g per 500 ml) dose. Measurement of upper body reaction time was performed on the Dynavision D2 Visuomotor Training Device (D2; Dynavision International LLC, West Chester, Ohio). The D2 is a light training reaction device, developed to train sensory motor integration through the visual system. It consists of a board (4 foot×4 foot) that can be raised or lowered relative to the height of the operator. It contains 64 target buttons arranged into five concentric circles surrounding a center screen that can be illuminated to serve as a stimulus for the participant. Participants were required to assume a comfortable athletic stance and stand at a distance from the board where they could easily reach all of the lights. The board height was adjusted so the LCD screen was located just below eye level. A total of three different reaction tests were conducted. Participants were instructed to fixate their gaze on the LCD screen in the middle of the board and to keep their focus there for the entirety of the experiment. The second assessment (MODE A) measured the participant's ability to react to a stimulus as it changed positions on the board. An initial stimulus will present on the D2 in a 6 random location. The stimulus remained lit until it was struck by the participant. The stimulus then appeared at another random location. The participant was instructed to identify and strike as many stimuli as possible within 60 s. The number of hits and the average time per hits were recorded for each participant. Additionally, to make inferences on true effects of the different trials on reaction performance, an analysis based on the magnitude of differences, calculated from 90% confidence intervals, as previously described by Batterham and Hopkins (2005), was used in this study. Differences in Post-Pre performance (Δresponse) between trials were analyzed via a published spreadsheet (Hopkins 2007), with the smallest non-trivial change set at 20% of the grand standard deviation (Batterham and Hopkins 2005). All data are expressed as a mean effect±SD, with percent chances of a beneficial, trivial or negative outcome. Qualitative inferences, based on quantitative chances were assessed as: <1% almost certainly not, 1-5% very unlikely, 5-25% unlikely, 25-75% possibly, 75-95% likely, 95-99% very likely and >99% almost certainly (Hopkins 2002).

C[C@H](N)C(=O)N[C@@H](CCC(N)=O)C(=O)O [L-Alanyl-L-Glutamine] (H-Ala-Gln-OH)
solubility in aqueous solutions [1]: superior
stability (heat stability) [1]: superior
Mode A Avg Δ, Interpretation ([2]; Dehydration vs High Dose): Possibly
Mode A Avg Δ, Mean Difference ([2]; Dehydration vs High Dose): 0.025
Mode A Avg Δ, Percent Negative ([2]; Dehydration vs High Dose): 2.83%
Mode A Avg Δ, Percent Positive ([2]; Dehydration vs High Dose): 69.46%
Mode A Avg Δ, Percent Trivial ([2]; Dehydration vs High Dose): 27.71%
Mode A Hits Δ, Interpretation ([2]; Dehydration vs High Dose): possible negative effect; also recorded: Possibly
Mode A Hits Δ, Mean Difference ([2]; Dehydration vs High Dose): −2.9
Mode A Hits Δ, Percent Negative ([2]; Dehydration vs High Dose): 70.21%
Mode A Hits Δ, Percent Positive ([2]; Dehydration vs High Dose): 2.09%
Mode A Hits Δ, Percent Trivial ([2]; Dehydration vs High Dose): 27.70%
Mode A Avg Δ, Interpretation ([2]; Dehydration vs Low Dose): Possibly
Mode A Avg Δ, Mean Difference ([2]; Dehydration vs Low Dose): 0.02
Mode A Avg Δ, Percent Negative ([2]; Dehydration vs Low Dose): 2.61%
Mode A Avg Δ, Percent Positive ([2]; Dehydration vs Low Dose): 61.93%
Mode A Avg Δ, Percent Trivial ([2]; Dehydration vs Low Dose): 35.45%
Mode A Hits Δ, Interpretation ([2]; Dehydration vs Low Dose): possible negative effect; also recorded: Possibly
Mode A Hits Δ, Mean Difference ([2]; Dehydration vs Low Dose): −2.2
Mode A Hits Δ, Percent Negative ([2]; Dehydration vs Low Dose): 57.68%
Mode A Hits Δ, Percent Positive ([2]; Dehydration vs Low Dose): 3.88%
Mode A Hits Δ, Percent Trivial ([2]; Dehydration vs Low Dose): 38.43%
Mode A Avg Δ, Interpretation ([2]; Gatorade vs High Dose): Possibly
Mode A Avg Δ, Mean Difference ([2]; Gatorade vs High Dose): 0.023
Mode A Avg Δ, Percent Negative ([2]; Gatorade vs High Dose): 2.17%
Mode A Avg Δ, Percent Positive ([2]; Gatorade vs High Dose): 67.69%
Mode A Avg Δ, Percent Trivial ([2]; Gatorade vs High Dose): 30.14%
Mode A Hits Δ, Interpretation ([2]; Gatorade vs High Dose): possibly negative
Mode A Hits Δ, Mean Difference ([2]; Gatorade vs High Dose): 2.7
Mode A Hits Δ, Percent Negative ([2]; Gatorade vs High Dose): 65.88%
Mode A Hits Δ, Percent Positive ([2]; Gatorade vs High Dose): 2.87%
Mode A Hits Δ, Percent Trivial ([2]; Gatorade vs High Dose): 31.25%
speed per hit, MODE A ([2]; HD and LD compared to DHY and ELECT only): not statistically different
improvements of successful hits, MODE A ([2]; HD and LD compared to DHY and ELECT only, not statistically significant): 3-4 fold
Mode A Avg Δ (average time per hit), group mean ([2]; High Dose (1 g per 500 ml)): −0.028
Mode A Hits Δ, group mean ([2]; High Dose (1 g per 500 ml)): 3.67
Mode A Avg Δ (average time per hit), group mean ([2]; Low Dose (300 mg per 500 ml)): −0.023
Mode A Hits Δ, group mean ([2]; Low Dose (300 mg per 500 ml)): 2.92
Mode A Avg Δ, Interpretation ([2]; Low Dose vs Gatorade): Unclear
Mode A Avg Δ, Mean Difference ([2]; Low Dose vs Gatorade): −0.018
Mode A Avg Δ, Percent Negative ([2]; Low Dose vs Gatorade): 50.55%
Mode A Avg Δ, Percent Positive ([2]; Low Dose vs Gatorade): 44.41%
Mode A Avg Δ, Percent Trivial ([2]; Low Dose vs Gatorade): 5.04%
Mode A Hits Δ, Interpretation ([2]; Low Dose vs Gatorade): Unclear
Mode A Hits Δ, Mean Difference ([2]; Low Dose vs Gatorade): 1.9
Mode A Hits Δ, Percent Negative ([2]; Low Dose vs Gatorade): 42.26%
Mode A Hits Δ, Percent Positive ([2]; Low Dose vs Gatorade): 50.35%
Mode A Hits Δ, Percent Trivial ([2]; Low Dose vs Gatorade): 7.39%
Mode A Avg Δ, Interpretation ([2]; Low Dose vs High Dose): Very Likely
Mode A Avg Δ, Mean Difference ([2]; Low Dose vs High Dose): 0.005
Mode A Avg Δ, Percent Negative ([2]; Low Dose vs High Dose): 0.02%
Mode A Avg Δ, Percent Positive ([2]; Low Dose vs High Dose): 2.51%
Mode A Avg Δ, Percent Trivial ([2]; Low Dose vs High Dose): 97.47%
Mode A Hits Δ, Interpretation ([2]; Low Dose vs High Dose): Likely
Mode A Hits Δ, Mean Difference ([2]; Low Dose vs High Dose): −0.75
Mode A Hits Δ, Percent Negative ([2]; Low Dose vs High Dose): 9.11%
Mode A Hits Δ, Percent Positive ([2]; Low Dose vs High Dose): 0.11%
Mode A Hits Δ, Percent Trivial ([2]; Low Dose vs High Dose): 90.77%

Reference: patent publication US10369185B2, “Methods and compositions for enhancement of ability to concentrate” (KYOWA HAKKO BIO CO., LTD., priority 2014, dated 2019)
